We go through three compounds from patent publication US9518038B2, “Condensation product of theanine derivative and carboxylic acid coumarin derivative, its intermediate, preparation method and use thereof” (SHANDONG YINGDONG YINGHAO BIOTECHNOLOGY, INC., priority 2012, dated 2016).

One test concerns p21. The test can be described thus: Western Blotting, increase of p21 level. The format is cell-based. The settings on record: liver cancer cells, Lewis lung cancer cells and other cancer cell lines and tumor tissue protein lysates, 48 h treatment, read-out: Effective concentration to increase p21 by 50%. The text has this:
(§1) Antibodies: primary antibodies of VEGFR, EGFR, c-Met, K-Ras, H-Ras, Akt, NF-κB, Cyclin D1, ER-alpha, Dvl-1, Dvl-2, Dvl-3, MMP-9, MMP2, β-catenin, Bcl-2, Bax, p53, p21, E-cadherin and Caspase3 protein, purchased from American Cell Signaling Technology Company and Santa Cruz Technology Company; and H3 acetylation, H4 acetylation and HDAC (HDAC3, HDAC4 and the like) Antibody Sample Kits, purchased from Cell Signaling Technology Company of the U.S.
(§2) (3) polyacrylamide gel electrophoresis (SDS-PAGE): an equal amount of protein lysate sample was used to separate protein, film transfer, and blocking, treated with appropriate primary antibodies and secondary antibodies in sequence, and the film was washed, then the color was developed with ECL kit, and a blot protein band was detected by exposure of an X-ray film; and a Gel-Pro Analyzer was used for quantitative analysis of gray degree, optical density value of the control group and the drug treatment group in various concentration were respectively compared with that of internal reference, the obtained ratios were respectively compared with the control group, and the protein expression level was semi-quantified.
Background: In western blotting, separated proteins are transferred to a membrane and probed.

A further test has as its target T1, EZH2 (Homo sapiens, UniProt Q15910).
T1 construct: the EZH2 enzyme was replaced with tumor protein extracts in each group; from tissue; host or cells: human tumour xenografts excised from treated nude mice
Nature of the test: EZH2 enzyme activity in protein extracts of human tumor xenografts of treated mice (EZH2 Assay Kit). The format is in vivo. The settings on record: tumors excised 6 h after medication, SAHA 25 mg/kg.

In test [1] the test system is human chronic leukemia cells K562. The test can be described thus: MTT growth inhibition, K562 cells. It counts as cell-based. The settings on record: 72 h after treatment, read-out: Drug concentration (IC50) at which 50% cancer cells survived.
In test [2] the test system is human colon cancer cells HT29. The test can be described thus: MTT growth inhibition, HT29 cells. It counts as cell-based. The settings on record: HT-29, 72 h after treatment, read-out: Drug concentration (IC50) at which 50% cancer cells survived.
For test [3], the system named is human oral epidermoid cancer cells KBV200. The test can be described thus: MTT growth inhibition, KBV200 cells. As to conditions: 72 h after treatment, read-out: Drug concentration (IC50) at which 50% cancer cells survived. The format is cell-based.
The test system of test [4] is human liver cancer cells SMMC7721 xenograft. Nature of the test: In-vivo growth of SMMC7721 xenografts in nude mice. Set-up: species or system BALB/c nude mice. The settings on record: Mus musculus, SMMC-7721, ip, S-7721 xenograft, vs DMSO solvent control, read-out: Curative effect (inhibition rate %) of tumor weight; for inhibition in vivo at 60 mg/kg: 60 mg/kg intraperitoneal once a day; for inhibition in vivo at 90 mg/kg: 90 mg/kg intraperitoneal once a day. On the procedure: RPMI1640 and DMEM culture solutions: Hyclone Company; inactivated fetal bovine serum: Hyclone Company, preserved at −20° C.; trypsin: Amersco Company; and 0.4% trypan blue: Sigma Company;
(3) Observation of growth of tumors in nude mice: the activities (including food intake, traits of urine and stool, mental state and the like) of the nude mice and the tumor growth time and growth situation of the transplanted tumors were observed every day, the body weight and the size of the tumors were measured once every 2-3 days. The long diameter a and the short diameter b (mm) of each tumor were measured by a vernier caliper to calculate the volume, wherein the volume V=π1/2·ab^2 (mm^3);
(4) sacrifice of animals: the mice were anesthetized and photoed after treatment experiments; the nude mice were sacrificed by breaking neck, the tumor tissues were stripped under sterile conditions and the weight of the tumors was weighed; and the effects of the drugs on pathology and toxicity of the various organs and tissues were detected.

Another test has as its system HDAC3. Nature of the test: Western Blotting, HDAC3 level. It counts as cell-based. The settings on record: human liver cancer cells, Lewis lung cancer cells and other cancer cell lines and tumor tissues, read-out: Effective concentration (IC50) for inhibition of HDAC3.
From the text: as §1, §2

The test system of the next test is Bcl-2/Bax. The test can be described thus: Western Blotting, Bcl-2/Bax level. The format is cell-based. As to conditions: human liver cancer cells, Lewis lung cancer cells and other cancer cell lines and tumor tissues, read-out: Effective concentration (IC50) for inhibition of Bcl-2/Bax.
From the text: as §1, §2

The next test concerns Akt. Nature of the test: Western Blotting, Akt level. The format is cell-based. As to conditions: human liver cancer cells, Lewis lung cancer cells and other cancer cell lines and tumor tissues, read-out: Effective concentration (IC50) for inhibition of Akt.
From the text: as §1, §2

The test system of another test is E-cadherin. The test can be described thus: Western Blotting, increase of E-cadherin level. The format is cell-based. As to conditions: liver cancer cells, Lewis lung cancer cells and other cancer cell lines and tumor tissue protein lysates, 48 h treatment, read-out: Effective concentration to increase E-cadherin by 50%.
From the text: as §1, §2

The next test deals with c-Met. The test can be described thus: Western Blotting, c-Met level. As to conditions: human liver cancer cells, Lewis lung cancer cells and other cancer cell lines and tumor tissues, read-out: Effective concentration (IC50) for inhibition of c-Met. It counts as cell-based.
From the text: as §1, §2

T1 sequence (Q15910 whole entry): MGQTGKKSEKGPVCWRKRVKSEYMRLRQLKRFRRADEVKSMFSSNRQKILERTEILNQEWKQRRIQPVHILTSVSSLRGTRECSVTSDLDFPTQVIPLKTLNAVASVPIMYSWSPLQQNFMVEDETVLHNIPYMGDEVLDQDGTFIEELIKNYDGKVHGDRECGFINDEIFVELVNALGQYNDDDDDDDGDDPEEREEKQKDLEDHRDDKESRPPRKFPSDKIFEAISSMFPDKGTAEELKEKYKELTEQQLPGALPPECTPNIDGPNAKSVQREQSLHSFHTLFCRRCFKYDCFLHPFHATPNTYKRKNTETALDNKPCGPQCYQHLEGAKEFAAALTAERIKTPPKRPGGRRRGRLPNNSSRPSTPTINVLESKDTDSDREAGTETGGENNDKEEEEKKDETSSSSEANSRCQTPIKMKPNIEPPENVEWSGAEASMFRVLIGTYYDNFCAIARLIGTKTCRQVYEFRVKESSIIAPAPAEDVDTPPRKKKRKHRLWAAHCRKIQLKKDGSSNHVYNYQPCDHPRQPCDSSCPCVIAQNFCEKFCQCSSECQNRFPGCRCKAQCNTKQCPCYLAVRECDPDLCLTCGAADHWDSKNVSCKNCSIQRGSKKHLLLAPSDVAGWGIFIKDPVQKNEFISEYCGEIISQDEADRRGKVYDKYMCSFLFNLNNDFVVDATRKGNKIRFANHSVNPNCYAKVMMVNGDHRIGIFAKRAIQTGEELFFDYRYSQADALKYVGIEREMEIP
T1 sequence (O75530 whole entry partner): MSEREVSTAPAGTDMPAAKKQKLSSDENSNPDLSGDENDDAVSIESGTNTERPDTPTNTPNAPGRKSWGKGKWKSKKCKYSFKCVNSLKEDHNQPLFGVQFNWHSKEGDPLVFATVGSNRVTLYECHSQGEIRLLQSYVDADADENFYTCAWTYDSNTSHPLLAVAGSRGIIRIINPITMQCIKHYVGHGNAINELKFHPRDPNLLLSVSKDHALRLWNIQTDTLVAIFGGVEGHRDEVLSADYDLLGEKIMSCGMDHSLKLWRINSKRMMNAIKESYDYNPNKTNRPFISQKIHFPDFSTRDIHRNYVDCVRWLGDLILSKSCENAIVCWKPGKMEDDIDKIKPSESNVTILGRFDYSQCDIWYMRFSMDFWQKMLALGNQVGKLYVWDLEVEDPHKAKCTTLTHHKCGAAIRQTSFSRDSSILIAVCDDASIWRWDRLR
T1 sequence (Q15022 whole entry partner): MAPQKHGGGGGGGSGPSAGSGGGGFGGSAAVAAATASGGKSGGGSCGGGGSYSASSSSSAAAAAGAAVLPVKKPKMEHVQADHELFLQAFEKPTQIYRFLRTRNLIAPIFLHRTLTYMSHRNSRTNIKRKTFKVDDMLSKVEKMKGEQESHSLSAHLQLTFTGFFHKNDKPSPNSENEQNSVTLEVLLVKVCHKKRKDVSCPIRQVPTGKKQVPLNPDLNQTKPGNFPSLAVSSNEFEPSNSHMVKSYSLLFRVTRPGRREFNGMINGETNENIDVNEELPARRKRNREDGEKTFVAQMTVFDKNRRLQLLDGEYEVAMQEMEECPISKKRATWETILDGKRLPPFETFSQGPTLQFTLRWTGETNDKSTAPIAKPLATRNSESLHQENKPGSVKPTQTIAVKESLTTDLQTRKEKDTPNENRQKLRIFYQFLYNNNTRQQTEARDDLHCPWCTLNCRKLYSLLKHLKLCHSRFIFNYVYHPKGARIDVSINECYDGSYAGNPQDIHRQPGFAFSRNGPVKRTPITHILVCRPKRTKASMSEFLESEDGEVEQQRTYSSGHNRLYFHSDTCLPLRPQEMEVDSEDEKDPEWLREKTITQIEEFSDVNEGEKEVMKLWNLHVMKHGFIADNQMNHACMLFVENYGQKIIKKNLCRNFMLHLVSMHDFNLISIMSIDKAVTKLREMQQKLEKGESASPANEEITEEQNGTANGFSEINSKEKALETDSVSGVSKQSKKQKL

For `CCNC(=O)CCC(NC(=O)c1cc2cc([N+](=O)[O-])ccc2oc1=O)C(=O)OCC` (stereo in doubt) [Compound If, (R)-2-(6-nitro-2-oxo-2H-benzopyran-3-carboxamido)-5-ethylamino-5-oxo-pentanoic acid ethyl ester], the EC50 with p21 and in the test on E-cadherin was less than 65 µM in each case. For the same compound, the “decrease of EZH2 enzyme activity/inhibition rate” value at EZH2 (A549 tumor grown in vivo) is reported as 65%*(A549)-; on EZH2 (MCF7 tumor grown in vivo), 66%*(MCF7); on EZH2 (MDA-MB231 tumor grown in vivo), 63%*(MDA-MB231); at EZH2 (SMMC7721 tumor grown in vivo), 64%*(SMMC7721);. Further, the IC50 is 91 µM in [1]; 153 µM in test [2]; 102 µM in [3]; less than 55 µM with HDAC3; less than 90 µM with Bcl-2/Bax; less than 90 µM in the test with Akt. The IC50 in the test on c-Met was less than 141 µM. In addition, the inhibition in vivo at 60 mg/kg in test [4] is 65.7%. For the same compound, in test [4], the inhibition in vivo at 90 mg/kg is 75.7%.
On to `CCNC(=O)CCC(NC(=O)c1cc2ccccc2oc1=O)C(=O)OC` (stereo not drawn) [Compound Ia, methyl 5-ethylamino-5-oxo-2-(2-oxo-2H-benzopyran-3-carboxamido)pentanoate], for which the values for the EC50 with p21 and with E-cadherin were less than 125 µM and less than 75 µM, respectively. The “decrease of EZH2 enzyme activity/inhibition rate” value at EZH2 (SMMC7721 tumor grown in vivo) is recorded as 54%*(SMMC-7721). Also, the IC50 in test [1] was 248 µM; in test [2], 62 µM; in [3], 240 µM; with HDAC3, less than 75 µM; with Bcl-2/Bax, less than 125 µM; with Akt, less than 125 µM. Besides, the IC50 in the test with c-Met is less than 160 µM. In test [4], the inhibition in vivo at 60 mg/kg was determined as 52.7%. Moreover, in test [4], the inhibition in vivo at 90 mg/kg came out at 61.9%.
In the case of `CCNC(=O)CC[C@@H](NC(=O)c1cc2cc(Br)ccc2oc1=O)C(=O)OCC` [Compound Id, (R)-2-(6-Br-2-oxo-2H-benzopyran-3-carboxamido)-5-ethylamino-5-oxo-pentanoic acid ethyl ester], the EC50 in the test on p21 was less than 100 µM; in the test on E-cadherin it was less than 65 µM. Also, the “decrease of EZH2 enzyme activity/inhibition rate” value on EZH2 (A549 tumor grown in vivo) is reported as 61%*(A549)-; on EZH2 (MCF7 tumor grown in vivo), 56%*(MCF7); at EZH2 (MDA-MB231 tumor grown in vivo), 58%*(MDA-MB231); on EZH2 (SMMC7721 tumor grown in vivo), 59%*(SMMC7721);. Further, the IC50 in [1] was 125 µM; in test [2], 45 µM; in [3], 112 µM; in the test on HDAC3 it was less than 65 µM; in the test with Bcl-2/Bax, less than 100 µM; with Akt, less than 100 µM. The IC50 with c-Met was less than 150 µM. For the same compound, the inhibition in vivo at 60 mg/kg in test [4] is 67.2%. Moreover, the inhibition in vivo at 90 mg/kg in test [4] stood at 75.7%.
